US6706663B2, “Herbicidal 3-heterocyclic substituted benzisothiazole and benzisoxazole compounds” (Wyeth, priority 2000, dated 2004)

Legend:
[1] = system: ECHORC (Echinochloa oryzoides); assay: Flooded paddy, postemergence weed control; type: in vivo, Echinochloa oryzoides (Ard.) Fritsch.; conditions: postemergence weeds, rated 3-4 weeks after treatment
Source text: (§1) Results of herbicide evaluation are expressed on a rating scale (0-9). The scale is based upon a visual observation of plant stand, vigor, malformation, size, chlorosis and overall plant appearance as compared with a control.
(§2) Plastic containers containing weeds which are 3 to 5 cm tall and rice seedlings at the 1.5 to 2.5 leaf stage are flooded with water. The water is maintained at 1.5 to 3 cm above the soil surface for the duration of the experiment. Test compounds are applied as aqueous/acetone mixtures 50/50 v/v directly into the flood water to provide the equivalent of about 0.0320 to 0.2500 kg/ha of active ingredient. The treated containers are placed on greenhouse benches and cared for in accordance with conventional greenhouse procedures. Three to four weeks after treatment, the test is terminated and each container is examined and herbicidal effect rated according to the rating system provided in Example 87. The compounds evaluated are identified in Example 87 and plant species used are identified in Example 89.

[2] = system: SAGPY (Sagittaria pygmaea); assay: Flooded paddy, postemergence weed control; type: in vivo, L.; conditions: postemergence weeds, rated 3-4 weeks after treatment
Source text: as §1, §2

[3] = system: ABUTH (Abutilon theophrasti); assay: Postemergence herbicidal evaluation; type: in vivo, Medic.; conditions: for ABUTH herbicidal rating: postemergence
How it was run: (§3)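 Visual 0–9 injury scores versus control plants, covering stand, vigour, malformation, size, chlorosis and general appearance, taken four to five weeks post-spray and averaged over replicate tests. Plants were sprayed at roughly two weeks old and held on greenhouse benches.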

ORYSAT (Rice, Tebonnet) [4] = assay: Preemergence herbicidal evaluation; type: in vivo, Oryza sativa, (L.) Tebonnet; conditions: rated 4-5 weeks after treatment
GALAP (Galium aparine) [5] = assay: Postemergence herbicidal evaluation; type: in vivo; conditions: for GALAP herbicidal rating: postemergence
How it was run: as §3

[6] = system: CYPSE (Cyperus serotinus); assay: Flooded paddy, postemergence weed control; type: in vivo, Rottb.; conditions: postemergence weeds, rated 3-4 weeks after treatment
Source text: as §1, §2

GALAP (Galium aparine) [7] = assay: Preemergence herbicidal evaluation; type: in vivo; conditions: rated 4-5 weeks after treatment
How it was run: (§4)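 Steps: mix seeds with potting soil; plant on ~1 inch soil per cup; spray compound in aqueous acetone; hold on greenhouse benches with routine watering; rate 0–9 visually against control at 4–5 weeks.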

[8] = system: IPOHE (Ipomoea hederacea); assay: Postemergence herbicidal evaluation; type: in vivo, (L.) Jacq.; conditions: for IPOHE herbicidal rating: postemergence
How it was run: as §3

[9] = system: CASOB (Cassia obtusifolia); assay: Postemergence herbicidal evaluation; type: in vivo, L.; conditions: for CASOB herbicidal rating: postemergence
How it was run: as §3

[10] = system: AMBEL (Ambrosia artemisifolia); assay: Postemergence herbicidal evaluation; type: in vivo, L.; conditions: for AMBEL herbicidal rating: postemergence
How it was run: as §3

[11] = system: CHEAL (Chenopodium album); assay: Postemergence herbicidal evaluation; type: in vivo, L.; conditions: for CHEAL herbicidal rating: postemergence
How it was run: as §3

[12] = system: TRZAWR (Wheat, Winter, cv Riband); assay: Preemergence herbicidal evaluation; type: in vivo, Triticum aestivum; conditions: rated 4-5 weeks after treatment
How it was run: as §4

ORYSAT (Rice, Tebonnet) [13] = assay: Flooded paddy, post-transplant and postemergence rice tolerance; type: in vivo, Oryza sativa, (L.) Tebonnet; conditions: post-transplant rice, rated 3-4 weeks after treatment
Source text: as §1, §2

[14] = system: ECHCG (Echinochloa crus-galli); assay: Preemergence herbicidal evaluation; type: in vivo, (L.) Beau; conditions: rated 4-5 weeks after treatment
How it was run: as §4

SETVI (Setaria viridis) = assay: Preemergence herbicidal evaluation; type: in vivo, (L.) Beau; conditions: rated 4-5 weeks after treatment
How it was run: as §4

ZEAMX (Corn, Field) = assay: Postemergence herbicidal evaluation; type: in vivo, Zea mays, L.; conditions: for ZEAMX herbicidal rating: postemergence
How it was run: as §3

CYPIR (Cyperus iria) = assay: Flooded paddy, postemergence weed control; type: in vivo; conditions: postemergence weeds, rated 3-4 weeks after treatment
Source text: as §1, §2

[15] = system: MOOVA (Monochoria vaginalis); assay: Flooded paddy, postemergence weed control; type: in vivo, Presl.; conditions: postemergence weeds, rated 3-4 weeks after treatment
Source text: as §1, §2

[16] = system: GLXMAW (Soybean, Williams); assay: Postemergence herbicidal evaluation; type: in vivo, Glycine max, (L.) Merr. cv Williams; conditions: for GLXMAW herbicidal rating: postemergence
How it was run: as §3

ORYSAT (Rice, Tebonnet) [17] = assay: Postemergence herbicidal evaluation; type: in vivo, Oryza sativa, (L.) Tebonnet; conditions: for ORYSAT herbicidal rating: postemergence
How it was run: as §3

1-methyl-3-[3-(1,3-oxathian-2-yl)-1,2-benzisothiazol-5-yl]-6-(trifluoromethyl)uracil S′,S′-dioxide [Compound 35]
3.0: Postemergence herbicidal rating, GALAP (GALAP (Galium aparine) [5]; rate 0.0320 kg/ha) | herbicide rating (0-9) ORYSAT (rice tolerance) (ORYSAT (Rice, Tebonnet) [13]; 0.0620 kg/ha into flood water) | Preemergence herbicidal rating ECHCG ([14]; Rate 0.0620 kg/ha) | ZEAMX herbicidal rating (ZEAMX (Corn, Field); rate 0.0320 kg/ha) | ZEAMX herbicidal rating (ZEAMX (Corn, Field); rate 0.0620 kg/ha)
2.5: ORYSAT herbicidal rating (ORYSAT (Rice, Tebonnet) [17]; rate 0.0620 kg/ha)
4.0: herbicide rating (0-9) ECHORC ([1]; 0.0620 kg/ha into flood water) | herbicide rating (0-9) ECHORC ([1]; 0.1250 kg/ha into flood water) | GALAP herbicidal rating (GALAP (Galium aparine) [5]; rate 0.0620 kg/ha) | Postemergence herbicidal rating, GALAP (GALAP (Galium aparine) [5]; rate 0.0620 kg/ha) | CASOB herbicidal rating ([9]; rate 0.0320 kg/ha) | CASOB herbicidal rating ([9]; rate 0.0620 kg/ha) | AMBEL herbicidal rating ([10]; rate 0.0320 kg/ha) | herbicide rating (0-9) ORYSAT (rice tolerance) (ORYSAT (Rice, Tebonnet) [13]; 0.1250 kg/ha into flood water) | GLXMAW herbicidal rating ([16]; rate 0.0320 kg/ha)
8.0: ECHCG preemergence herbicidal rating ([14]; Rate 0.0620 kg/ha) | Preemergence herbicidal rating SETVI (SETVI (Setaria viridis); Rate 0.0620 kg/ha)
6.0: Preemergence herbicidal rating ECHCG ([14]; Rate 0.1250 kg/ha)
6.5: Postemergence herbicidal rating, ORYSAT (ORYSAT (Rice, Tebonnet) [17]; rate 0.0320 kg/ha) | Postemergence herbicidal rating, ORYSAT (ORYSAT (Rice, Tebonnet) [17]; rate 0.0620 kg/ha)
5.5: ORYSAT preemergence herbicidal rating (ORYSAT (Rice, Tebonnet) [4]; Rate 0.0620 kg/ha) | GLXMAW herbicidal rating ([16]; rate 0.0620 kg/ha)
1.5: ORYSAT herbicidal rating (ORYSAT (Rice, Tebonnet) [17]; rate 0.0320 kg/ha)
0.0: herbicide rating (0-9) SAGPY ([2]; 0.0620 kg/ha into flood water) | herbicide rating (0-9) SAGPY ([2]; 0.1250 kg/ha into flood water) | herbicide rating (0-9) SAGPY ([2]; 0.2500 kg/ha into flood water) | Preemergence herbicidal rating ORYSAT (ORYSAT (Rice, Tebonnet) [4]; Rate 0.0620 kg/ha) | Preemergence herbicidal rating ORYSAT (ORYSAT (Rice, Tebonnet) [4]; Rate 0.1250 kg/ha) | Preemergence herbicidal rating ORYSAT (ORYSAT (Rice, Tebonnet) [4]; Rate 0.2500 kg/ha) | herbicide rating (0-9) CYPSE ([6]; 0.0620 kg/ha into flood water) | herbicide rating (0-9) CYPSE ([6]; 0.1250 kg/ha into flood water) | Preemergence herbicidal rating TRZAWR ([12]; Rate 0.0620 kg/ha) | Preemergence herbicidal rating TRZAWR ([12]; Rate 0.1250 kg/ha) | Preemergence herbicidal rating TRZAWR ([12]; Rate 0.2500 kg/ha)
9.0: herbicide rating (0-9) ECHORC ([1]; 0.2500 kg/ha into flood water) | ABUTH herbicidal rating ([3]; rate 0.0320 kg/ha) | ABUTH herbicidal rating ([3]; rate 0.0620 kg/ha) | Postemergence herbicidal rating, ABUTH ([3]; rate 0.0320 kg/ha) | Postemergence herbicidal rating, ABUTH ([3]; rate 0.0620 kg/ha) | ORYSAT preemergence herbicidal rating (ORYSAT (Rice, Tebonnet) [4]; Rate 0.1250 kg/ha) | ORYSAT preemergence herbicidal rating (ORYSAT (Rice, Tebonnet) [4]; Rate 0.2500 kg/ha) | herbicide rating (0-9) CYPSE ([6]; 0.2500 kg/ha into flood water) | GALAP preemergence herbicidal rating (GALAP (Galium aparine) [7]; Rate 0.0620 kg/ha) | GALAP preemergence herbicidal rating (GALAP (Galium aparine) [7]; Rate 0.1250 kg/ha) | Preemergence herbicidal rating GALAP (GALAP (Galium aparine) [7]; Rate 0.1250 kg/ha) | GALAP preemergence herbicidal rating (GALAP (Galium aparine) [7]; Rate 0.2500 kg/ha) | Preemergence herbicidal rating GALAP (GALAP (Galium aparine) [7]; Rate 0.2500 kg/ha) | IPOHE herbicidal rating ([8]; rate 0.0620 kg/ha) | Postemergence herbicidal rating, IPOHE ([8]; rate 0.0320 kg/ha) | Postemergence herbicidal rating, IPOHE ([8]; rate 0.0620 kg/ha) | Postemergence herbicidal rating, CASOB ([9]; rate 0.0320 kg/ha) | Postemergence herbicidal rating, CASOB ([9]; rate 0.0620 kg/ha) | AMBEL herbicidal rating ([10]; rate 0.0620 kg/ha) | Postemergence herbicidal rating, AMBEL ([10]; rate 0.0320 kg/ha) | Postemergence herbicidal rating, AMBEL ([10]; rate 0.0620 kg/ha) | CHEAL herbicidal rating ([11]; rate 0.0620 kg/ha) | Postemergence herbicidal rating, CHEAL ([11]; rate 0.0320 kg/ha) | Postemergence herbicidal rating, CHEAL ([11]; rate 0.0620 kg/ha) | TRZAWR preemergence herbicidal rating ([12]; Rate 0.1250 kg/ha) | TRZAWR preemergence herbicidal rating ([12]; Rate 0.2500 kg/ha) | ECHCG preemergence herbicidal rating ([14]; Rate 0.1250 kg/ha) | ECHCG preemergence herbicidal rating ([14]; Rate 0.2500 kg/ha) | SETVI preemergence herbicidal rating (SETVI (Setaria viridis); Rate 0.0620 kg/ha) | SETVI preemergence herbicidal rating (SETVI (Setaria viridis); Rate 0.1250 kg/ha) | Preemergence herbicidal rating SETVI (SETVI (Setaria viridis); Rate 0.1250 kg/ha) | SETVI preemergence herbicidal rating (SETVI (Setaria viridis); Rate 0.2500 kg/ha) | Preemergence herbicidal rating SETVI (SETVI (Setaria viridis); Rate 0.2500 kg/ha) | herbicide rating (0-9) CYPIR (CYPIR (Cyperus iria); 0.0620 kg/ha into flood water) | herbicide rating (0-9) CYPIR (CYPIR (Cyperus iria); 0.1250 kg/ha into flood water) | herbicide rating (0-9) CYPIR (CYPIR (Cyperus iria); 0.2500 kg/ha into flood water) | herbicide rating (0-9) MOOVA ([15]; 0.0620 kg/ha into flood water) | herbicide rating (0-9) MOOVA ([15]; 0.1250 kg/ha into flood water) | herbicide rating (0-9) MOOVA ([15]; 0.2500 kg/ha into flood water) | Postemergence herbicidal rating, GLXMAW ([16]; rate 0.0320 kg/ha) | Postemergence herbicidal rating, GLXMAW ([16]; rate 0.0620 kg/ha)
7.0: Preemergence herbicidal rating GALAP (GALAP (Galium aparine) [7]; Rate 0.0620 kg/ha) | IPOHE herbicidal rating ([8]; rate 0.0320 kg/ha) | CHEAL herbicidal rating ([11]; rate 0.0320 kg/ha) | TRZAWR preemergence herbicidal rating ([12]; Rate 0.0620 kg/ha)
5.0: herbicide rating (0-9) ORYSAT (rice tolerance) (ORYSAT (Rice, Tebonnet) [13]; 0.2500 kg/ha into flood water)
2.0: GALAP herbicidal rating (GALAP (Galium aparine) [5]; rate 0.0320 kg/ha)
7.5: Preemergence herbicidal rating ECHCG ([14]; Rate 0.2500 kg/ha) | Postemergence herbicidal rating, ZEAMX (ZEAMX (Corn, Field); rate 0.0320 kg/ha) | Postemergence herbicidal rating, ZEAMX (ZEAMX (Corn, Field); rate 0.0620 kg/ha)
